The text below walks through data of article PMC3780361 (Bioorganic & medicinal chemistry, 2013).

Data set [1] is described as follows: physchem. The conditions noted are these: pH 7.4.
Data set [2] can be described thus: in vitro. To be noted: monkey; for IC50 at 72 h: Cytotoxicity IC50.
The subject of data set [3] is M. tb H37Rv. The conditions noted are these: secondary-linked 1 vs tertiary-linked 2; cited from earlier work.
Data set [4] can be described thus: Cytotoxicity determination. To be noted: monkey, Cytotoxicity IC50, VERO cell line, MTT.
The nature of data set [5]: Permeability determination. To be noted: PAMPA, pH 7.4.
For data set [6], the system named is M. tb H37Rv. The data set is described as follows: M. tb MIC determination by microbroth dilution. To be noted: Mycobacterium tuberculosis, 168 h, read-out: M. tb MIC. Format: cell-based.
The target of data set [7] is T1, recombinant human sEH (Homo sapiens, UniProt P34913).
T1 sequence (P34913 1-555): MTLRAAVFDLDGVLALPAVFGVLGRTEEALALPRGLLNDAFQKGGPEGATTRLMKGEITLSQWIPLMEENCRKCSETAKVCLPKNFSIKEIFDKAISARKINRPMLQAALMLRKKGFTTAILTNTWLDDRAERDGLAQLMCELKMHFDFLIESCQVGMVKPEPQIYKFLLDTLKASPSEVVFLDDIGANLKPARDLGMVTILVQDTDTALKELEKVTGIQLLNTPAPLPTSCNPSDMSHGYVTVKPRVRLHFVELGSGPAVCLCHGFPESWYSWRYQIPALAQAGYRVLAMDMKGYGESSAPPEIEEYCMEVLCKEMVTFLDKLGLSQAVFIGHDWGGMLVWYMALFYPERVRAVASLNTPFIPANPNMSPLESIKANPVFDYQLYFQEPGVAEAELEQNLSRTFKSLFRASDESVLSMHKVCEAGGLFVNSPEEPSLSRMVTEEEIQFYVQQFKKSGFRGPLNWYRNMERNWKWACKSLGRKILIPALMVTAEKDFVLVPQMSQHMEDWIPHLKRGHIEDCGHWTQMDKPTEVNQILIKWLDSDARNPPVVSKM
Kind of data set: Human soluble epoxide hydrolase assay. The class given is biochemical.

In brackets after ≈: the same amount, converted by molar mass. Some results are limits rather than exact numbers.

`Cc1cc(NC(=O)NC2C3CC4CC(C3)CC2C4)no1` (stereo not drawn) [Compound 47, 1-(2-adamantyl)-3-(5-methylisoxazol-3-yl)urea] yielded a solubility at 18 h in data set [1] of roughly 25 µg/mL (≈ 90.8 µM). In data set [2], the selectivity ratio at 72 h is greater than 8 and the IC50 at 72 h was greater than 48 µg/mL.
As for `CC(C)c1nnc(NC(=O)NC23CC4CC(CC(C4)C2)C3)o1` [Compound 37, 1-(1-adamantyl)-3-(5-isopropyl-1,3,4-oxadiazol-2-yl)urea], the solubility at 18 h in data set [1] was roughly 10 µg/mL (≈ 32.9 µM).
Take `O=C(Nc1ccc(F)c(F)c1F)NC1C2CC3CC(C2)CC1C3` (stereo not drawn) [Compound 1]: the “Fold more potent than 2 (anti-TB activity)” value in data set [3] was 40 fold.
In the case of `CCn1nc(NC(=O)NC2C3CC4CC(C3)CC2C4)cc1C` (stereo not drawn) [Compound 52, 1-(2-adamantyl)-3-(1-ethyl-5-methylpyrazol-3-yl)urea], the IC50 at 72 h in data set [4] was greater than 100 µg/mL.
As to `Cc1nnc(NC(=O)NC23CC4CC(CC(C4)C2)C3)o1` [Compound 36, 1-(1-adamantyl)-3-(5-methyl-1,3,4-oxadiazol-2-yl)urea], in data set [1], the solubility at 18 h is roughly 10 µg/mL (≈ 36.2 µM).
For the molecule `O=C(Nc1nnc(C2CC2)o1)NC1C2CC3CC(C2)CC1C3` (stereo not drawn) [Compound 50, 1-(2-adamantyl)-3-(5-cyclopropyl-1,3,4-oxadiazol-2-yl)urea], the IC50 at 72 h in data set [4] is greater than 100 µg/mL.
`CCCSc1ccc2nc(NC(=O)OC)[nH]c2c1` [albendazole] showed a Papp at 0.5 hr, 50 µM in data set [5] of roughly 441 ×10⁻⁶ cm/s.
In the case of `Nc1ccc(S(=O)(=O)c2ccc(NC(=O)NC34CC5CC(CC(C5)C3)C4)cc2)cc1` [Compound 13, 1-(1-adamantyl)-3-(4-((4-aminophenyl)sulfonyl)phenyl)urea], the MIC in data set [6] turned out to be 6.25 µg/mL (≈ 14.7 µM). Moreover, the IC50 in data set [7] came out at 0.7 nM. In data set [1], this molecule had a solubility at 18 h of 0.9 ± 0.1 µg/mL (≈ 2.11 µM). For the same molecule, in data set [2], the selectivity ratio at 72 h is 23 and the IC50 at 72 h is greater than 100 µg/mL.
Turning to `Cc1cc(NC(=O)NC23CC4CC(CC(C4)C2)C3)no1` [Compound 23, 1-(1-adamantyl)-3-(5-methylisoxazol-3-yl)urea], the solubility at 18 h in data set [1] was roughly 25 µg/mL (≈ 90.8 µM).

The term solubility denotes the dissolved amount per volume that the medium holds. By IC50 is commonly meant the concentration needed to halve the response being measured. As a reminder, the Papp is a coefficient for how fast a substance crosses the barrier. For orientation: MIC means the lowest concentration found to suppress growth.
